Experimental data as given in patent US11285127B2, “Compositions and methods for lowering triglycerides without raising LDL-C levels in a subject on concomitant statin therapy” (Amarin Pharmaceuticals Ireland Limited, priority 2013, dated 2022).

How the values were obtained:
[1] = tested on: patients with fasting triglyceride levels >200 mg/dl and <500 mg/dl despite statin therapy; assay: 12-week study: plasma fatty acids (EPA concentration, FADI ratios) by gas chromatography/flame ionization detection; assay type: in vivo, human; settings: 4 g/day, placebo-adjusted, 12 weeks
Experimental: (§1) A multi-center, placebo-controlled, randomized, double-blind, 12-week study was performed to evaluate the efficacy and safety of >96% E-EPA in patients with fasting triglyceride levels >200 mg/dl and <500 mg/dl despite statin therapy (the mean of two qualifying entry values needed to be >185 mg/dl and at least one of the values needed to be >200 mg/dl). The primary objective of the study was to determine the efficacy of >96% E-EPA 2 g daily and 4 g daily, compared to placebo, in lowering fasting TG levels in patients with high risk for cardiovascular disease and with fasting TG levels 200 mg/dl and <500 mg/dl, despite treatment to LDL-C goal on statin therapy. The secondary objectives of this study were the following: • 1. To determine the safety and tolerability of >96% E-EPA 2 g daily and 4 g daily; • 2. To determine the effect of >96% E-EPA on lipid and apolipoprotein profiles including total cholesterol (TC), non-high-density lipoprotein cholesterol (non-HDL-C), low density lipoprotein cholesterol (LDL-C), high density lipoprotein cholesterol (HDL-C), and […]; • 3. To determine the effect of >96% E-EPA on lipoprotein associated phospholipase A2 (Lp-PLA2) from baseline to week 12; • 4. To determine the effect of >96% E-EPA on low-density lipoprotein (LDL) particle number and size; • 5. […]

[2] = tested on: patients with fasting triglyceride levels >200 mg/dl and <500 mg/dl despite statin therapy; assay: 12-week study: red blood cell fatty acids (EPA concentration, FADI ratios) by gas chromatography/flame ionization detection; assay type: in vivo, human; settings: 4 g/day, placebo-adjusted, 12 weeks
Experimental: as §1

Compound: CC/C=C\C/C=C\C/C=C\C/C=C\C/C=C\CCCC(=O)OCC [AMR101, ethyl eicosapentaenoate]
- FADI-16 (Palmitoleic acid/Palmitic acid, C16:1/C16:0), % Change, Plasma [1]: −6.8%
- FADI-18 (Oleic acid/Stearic Acid, C18:1/C18:0), % Change, Plasma [1]: −9.8%
- FADI-16 (Palmitoleic acid/Palmitic acid, C16:1/C16:0), % Change, RBCs [2]: −15.7%
- FADI-18 (Oleic acid/Stearic Acid, C18:1/C18:0), % Change, RBCs [2]: −3.1%
